Measured values reported in patent US10647699B2, “Substituted 2-oxyimidazolylcarboxamides as pesticides” (Bayer CropScience Aktiengesellschaft, priority 2016, dated 2020).

How the values were obtained:
Myzus persicae [1] = assay: Myzus persicae oral test (MYZUPE O); format: in vivo
Aphis gossypii = Aphis gossypii spray test on cotton plants; format: in vivo; details: after 6 days, application rate 20 ppm, cotton plants
Protocol: Aphis gossypii—Spray Test
(§1) Solvent: 14 parts by weight of dimethylformamide
(§2) Emulsifier: alkylaryl polyglycol ether
(§3) To produce a suitable preparation of active compound, 1 part by weight of active compound is dissolved using the specified parts by weight of solvent and made up with water containing an emulsifier concentration of 1000 ppm until the desired concentration is attained. To produce further test concentrations, the formulation is diluted with emulsifier-containing water. If the addition of ammonium salts or/and penetrants is required, these are each added in a concentration of 1000 ppm to the formulation solution.
Cotton plants (Gossypium hirsutum) which are heavily infested by the cotton aphid (Aphis gossypii) are sprayed with an active compound formulation of the desired concentration.
After 6 days, the kill in % is determined. 100% means that all the aphids have been killed; 0% means that no aphids have been killed.

Myzus persicae [2] = assay: Myzus persicae spray test on bell pepper plants; format: in vivo; details: after 6 days, application rate 20 ppm
Protocol: Myzus persicae-Spray Test
as §1, §2, §3
Bell pepper plants (Capsicum annuum) severely infested with the green peach aphid (Myzus persicae) are treated by spraying with the active compound formulation in the desired concentration.
After 6 days, the kill in % is determined. 100% means that all of the aphids have been killed; 0% means that none of the aphids have been killed.

[3] = log P by HPLC on reversed-phase columns (OECD Guideline 117), neutral range; format: physicochemical
Myzus persicae [4] = assay: Myzus persicae spray test (MYZUPE), Chinese cabbage leaf discs; format: in vivo; details: after 5 days, application rate 500 g/ha
Tetranychus urticae = Tetranychus urticae spray test, OP-resistant, bean leaf discs; format: in vivo; details: after 6 days, application rate 500 g/ha
Protocol: Tetranychus urticae—Spray Test, OP-Resistant
as §3, with “water.” for “water. If the addition of ammonium salts or/and penetrants is required, these are each added in a concentration of 1000 ppm to the formulation solution.”
Discs of bean leaves (Phaseolus vulgaris) infested with all stages of the greenhouse red spider mite (Tetranychus urticae) are sprayed with an active compound formulation of the desired concentration.
After 6 days, the efficacy in % is determined. 100% means that all the spider mites have been killed; 0% means that no spider mites have been killed.

Boophilus microplus = Boophilus microplus injection test; format: in vivo; details: 20 μg/animal, assessed after 7 days
Protocol: Boophilus microplus—Injection Test Solvent: dimethyl sulphoxide To produce a suitable preparation of active compound, 10 mg of active compound are mixed with 0.5 ml of solvent and the concentrate is diluted with solvent to the desired concentration. […] The animals are transferred into dishes and kept in a climate-controlled room. Efficacy is assessed after 7 days by laying of fertile eggs. Eggs which are not visibly fertile are stored in a climate-controlled cabinet until the larvae hatch after about 42 days.

[5] = after 5 days, application rate 20 ppm

Row | SMILES | efficacy (Myzus persicae [1]; [5]) | efficacy (kill) (Aphis gossypii) | efficacy (kill) (Myzus persicae [2]) | LogP-neutral ([3]; pH 7.8) | efficacy (Myzus persicae [4]) | efficacy (Tetranychus urticae) | chromatographic logP ([3]; reversed-phase (C18) HPLC column, HPLC, neutral range pH 7.8, read-out: LogP-neutral) | Emax at 0.8 ppm (Myzus persicae [1]; Myzus persicae, po, 120 h, MYZUPE O, 0.8 ppm, 5 dat, read-out: % efficacy) | Emax at 4 ppm (Myzus persicae [1]; Myzus persicae, po, 120 h, MYZUPE O, 4 ppm, 5 dat, read-out: % efficacy) | pest or weed control at 20 ppm (Myzus persicae [1]; Myzus persicae, po, 120 h, after 5 days, application rate 20 ppm, read-out: efficacy) | pest or weed control at 20 ppm (Aphis gossypii; Aphis gossypii, 144 h, read-out: efficacy (kill)) | efficacy (no fertile eggs laid) (Boophilus microplus) | LogP-neutral ([3]; HPLC, neutral range pH 7.8)
1 | CN(C(=O)c1cnc(Oc2ccc(Oc3ccc(Cl)nc3)nc2)n1C)c1cccnc1 [Example II-45] | 100% | 99% | 98% | – | – | – | – | – | – | – | – | – | –
2 | C=CCOc1ncc(C(=O)N(C)c2cccnc2)n1C [Example II-37] | 100% | 100% | – | 1.38 | 100% | 90% | – | – | – | – | – | – | –
3 | CC(C)Oc1ncc(C(=O)N(C)c2cccnc2)n1C [Example II-1] | – | – | 100% | – | – | – | 1.47 | 90% | 100% | 100% | 100% | 100% | –
4 | CN(C(=O)c1cnc(Oc2ccc(F)nc2)n1C)c1cccnc1 [Example II-40] | 100% | 100% | – | – | 100% | – | – | – | – | – | – | 80% | 1.33
5 | CN(C(=O)c1cnc(Oc2ccc(F)cc2)n1C)c1cccnc1 [Example II-19] | 100% | 100% | 95% | – | – | – | – | – | – | – | – | – | 1.76
